In brackets after ≈: the same amount, converted by molar mass. Where two headings read alike, the source gives them in different places.
Legend:
[1] = transcutaneous toxicity in rats; conditions: rat, in vivo, topical or ocular, male rats
[2] = solubility; type: physicochemical
[3] = tested on: Staphylococcus aureus 980; test: MIC (Table II); type: cell-based; conditions: 24h, read-out: minimum inhibition concentration
Method: (§1) The antibiotic activity was determined by the diffusion method in a gelose medium at a pH of 7. The following Table expresses the minimum concentration of inhibition in mcg/ml (CMl) for the products against different microbial strains.
(§2) Using the same procedure as in Table I, the minimum inhibition concentration in mcg/ml was determined against different microbial strains with L(-) cis 7-[D(-)-α-aminophenylacetamido]-3-isopropyl-3-cepheme-4-carboxylic acid (product A) of Example 9.

[4] = tested on: Staphylococcus aureus 54146; test: MIC (Table II); type: cell-based; conditions: read-out: minimum inhibition concentration
Method: as §1, §2

[5] = tested on: Escherichia coli 5369; test: MIC (Table II); type: cell-based; conditions: read-out: minimum inhibition concentration
Method: as §1, §2

[6] = tested on: Shigella flexneri; test: MIC (Table II); type: cell-based; conditions: read-out: minimum inhibition concentration
Method: as §1, §2

[7] = tested on: Escherichia coli 5003; test: MIC (Table II); type: cell-based; conditions: read-out: minimum inhibition concentration
Method: as §1, §2

[8] = tested on: Escherichia coli 1751; test: MIC (Table II); type: cell-based; conditions: read-out: minimum inhibition concentration
Method: as §1, §2

[9] = tested on: Escherichia coli 9927; test: MIC (Table II); type: cell-based; conditions: read-out: minimum inhibition concentration
Method: as §1, §2

[10] = tested on: Streptococcus hemolyticus 920; test: MIC (Table II); type: cell-based; conditions: Streptococcus pyogenes, read-out: minimum inhibition concentration
Method: as §1, §2

[11] = tested on: Staphylococcus aureus 889; test: MIC (Table II); type: cell-based; conditions: Staphylococcus aureus, 889, read-out: minimum inhibition concentration
Method: as §1, §2

[12] = tested on: Staphylococcus aureus 017; test: MIC (Table II); type: cell-based; conditions: read-out: minimum inhibition concentration
Method: as §1, §2

[13] = tested on: Staphylococcus aureus 397; test: MIC (Table II); type: cell-based; conditions: read-out: minimum inhibition concentration
Method: as §1, §2

## CC(C)C1=C(C(=O)O)N2C(=O)[C@@H](NC(=O)[C@H](N)c3ccccc3)[C@H]2SC1 [Example 9, L (+) cis 7-[D (-)-α-aminophenylacetamido]-3-isopropyl-3-cepheme-4-carboxylic acid]
[1]
  LD50 at 192 h: > 1600 mg/kg
[2]; ethanol
  solubility in ethanol: slightly soluble
[2]; ether
  solubility in ether: insoluble
[3]
  MIC: > 40 µg/mL
[4]; 24h
  MIC: 1 µg/mL (≈ 2.66 µM)
[4]; 48h
  MIC: 1 µg/mL (≈ 2.66 µM)
[4]; 72h
  MIC: 2 µg/mL (≈ 5.33 µM)
[5]; 24h
  MIC: 30 µg/mL (≈ 79.9 µM)
[5]; 48h
  MIC: 40 µg/mL (≈ 107 µM)
[5]; 72h
  MIC: 100 µg/mL (≈ 266 µM)
[6]; 24h
  MIC: 20 µg/mL (≈ 53.3 µM)
[6]; 48h
  MIC: 40 µg/mL (≈ 107 µM)
[6]; 72h
  MIC: 40 µg/mL (≈ 107 µM)
[7]; 24h
  MIC: 40 µg/mL (≈ 107 µM)
[7]; 48h
  MIC: 40 µg/mL (≈ 107 µM)
[7]; 72h
  MIC: 40 µg/mL (≈ 107 µM)
[8]; 24h
  MIC: 30 µg/mL (≈ 79.9 µM)
[8]; 48h
  MIC: 30 µg/mL (≈ 79.9 µM)
[8]; 72h
  MIC: 30 µg/mL (≈ 79.9 µM)
[9]; 24h
  MIC: 100 µg/mL (≈ 266 µM)
[9]; 48h
  MIC: > 100 µg/mL
[10]; 24h
  MIC: 2 µg/mL (≈ 5.33 µM)
[10]; 48h
  MIC: 2 µg/mL (≈ 5.33 µM)
[10]; 72h
  MIC: 3 µg/mL (≈ 7.99 µM)
[11]; 24h
  MIC: 5 µg/mL (≈ 13.3 µM)
[11]; 48h
  MIC: 10 µg/mL (≈ 26.6 µM)
[11]; 72h
  MIC: 20 µg/mL (≈ 53.3 µM)
[12]; 24h
  MIC: 2 µg/mL (≈ 5.33 µM)
[12]; 48h
  MIC: 5 µg/mL (≈ 13.3 µM)
[12]; 72h
  MIC: 15 µg/mL (≈ 40 µM)
[13]; 24h
  MIC: 2 µg/mL (≈ 5.33 µM)
[13]; 48h
  MIC: 5 µg/mL (≈ 13.3 µM)
[13]; 72h
  MIC: 10 µg/mL (≈ 26.6 µM)

Reference: patent US4016158A, “Cephalosporin derivatives” (Roussel-UCLAF, priority 1971, dated 1977)
